Measurements: patent US8450070B2, “Method for screening of cell-protecting agent” (Takeda Pharmaceutical Company Limited, priority 2007, dated 2013)

Legend:
Hsp70 = Hsp70 expression-inducing activity in the presence of IL-1β stimulation (western blotting); assay type: cell-based; conditions: human normal articular chondrocytes, 10 ng/ml IL-1β, 2 days; FIG. 3
Description: In an embodiment of the step (2), the heat shock protein expression-inducing activity of a test compound was measured using a cell capable of expressing a heat shock protein. Hsp70 was used as the heat shock protein.
Human normal articular chondrocytes (manufactured by Clonetics Corporation) were grown by monolayer culture in a growth medium for articular chondrocytes (CGM, manufactured by Clonetics Corporation) and then suspended to 2.2×10^4 cells/ml in a 1:1 mixture of Dulbecco's modified Eagle's medium/Ham F12 medium. The cell culture was inoculated into a 12-well plate (manufactured by Asahi Techno Glass Corporation) by 3 ml per each well, followed by incubation at 37° C. for a day under 5% CO2. […]
After completion of the electrophoresis, the proteins in the gel were adsorbed onto a nitrocellulose membrane (Hybond-ECL; manufactured by Amersham Pharmacia Biotech Inc.) using HorizBlot (manufactured by Atto Co.). Each protein level was measured by western blotting using anti-Hsp70 antibody (manufactured by Transduction Laboratories) or anti-β-actin antibody (manufactured by Sigma, Inc.) as a primary antibody and horseradish peroxidase-labeled anti-mouse IgG antibody (manufactured by Kirkegaard & Perry Laboratories) as a secondary antibody. β-Actin was used to verify adsorption of the proteins onto the nitrocellulose membrane.

[1] = test system: human normal articular chondrocytes; assay: Cell protecting activity against NOR3-induced apoptosis (MTT); assay type: cell-based; conditions: 10 ng/ml IL-1β, 110 μM NOR3, human normal articular chondrocytes; FIG. 6
Description: First, human normal articular chondrocytes were suspended to 4×10^4 cells/ml in a growth medium for articular chondrocytes. The cell culture was inoculated into a 96-well plate, followed by incubation at 37° C. for a day under 5% CO2. The medium was exchanged to a 1:1 mixture of Dulbecco's modified Eagle's medium/Ham F12 medium. The test compound and 10 ng/ml of […] were added to the medium, followed by further incubation at 37° C. for a day under 5% CO2. Next, 110 μM nitrogen monoxide-releasing reagent, i.e., (±)-(E)-4-ethyl-2-[(E)-hydroximino]-5-nitro-3-hexenamide (NOR3; manufactured by Dojindo) was added and the mixture was incubated for a day to induce apoptosis of the cells. After completion of the incubation, a viability of the cells was determined using 3-(4,5-dimethylthiazol-2-yl)-2,5-diphenyltetrazorium bromide (MTT; manufactured by Dojindo). […] Compound A was verified to have an excellent cell protecting activity.

[2] = test system: human normal articular chondrocytes; assay: Cytotoxicity (cell viability, WST-8); assay type: cell-based; conditions: for cell viability (WST-8): 2 days, FIG. 7
Description: First, human normal articular chondrocytes were suspended to 5×10^4 cells/ml in a growth medium for articular chondrocytes. The cell culture was inoculated into a 96-well plate, followed by incubation at 37° C. for a day under 5% CO2. The test compound was added to the medium, followed by incubation at 37° C. for further 2 days under 5% CO2.

His-hHsp90α = biological target: T1, His-hHsp90α (Homo sapiens, UniProt P07900); assay: Inhibition of binding of His-hHsp90α to immobilized Compound B (SDS-PAGE, silver stain); conditions: various concentrations of test compound; FIG. 1
T1 construct: the Hsp90α coding region was amplified from a human skeletal complementary DNA (cDNA) library; His tag (N); made in house; host or cells: Escherichia coli BL21 (DE3), plasmid pET28b-hHsp90α
Description: In an embodiment of the step (1) in the screening method of the invention, the steps of measuring and comparing (i) the binding level of an immobilized imidazothiazine derivative to Hsp90 in the absence of a test compound and (ii) the binding level of an immobilized imidazothiazine derivative to Hsp90 in the presence of a test compound, were performed as follows.
Purified human Hsp90α protein (His-hHsp90α) tagged with histidine at the N terminus through using Escherichia coli was employed as Hsp90.
First, 10 μg of His-hHsp90α was reacted with a test compound of various concentrations in 0.2 ml of a binding buffer (10 mM Tris-HCl, pH 7.5, 20% glycerol, 1 mM EDTA, 500 mM NaCl and 1 mM DTT) containing 0.5% DMF for 30 minutes.

His2-hHsp90α protein = biological target: T2, His2-hHsp90α protein (Homo sapiens, UniProt P07900); assay: Inhibition of binding of [3H]-Compound A to immobilized His2-hHsp90α (SPA beads); conditions: 40 nM [3H]-Compound A, various concentrations of test compound; FIG. 2
T2 construct: the hHsp90α gene was excised from pET28b-hHsp90α using the BamHI cleavage site and the Bpu1102I cleavage site; made in house; host or cells: Escherichia coli BL21 (DE3), plasmid pET15b-hHsp90α
Description: In another embodiment of the step (1) of the screening method according to the present invention, measuring and comparing (i) the binding level of immobilized Hsp90 to a labeled imidazothiazine derivative in the absence of a test compound and (ii) the binding level of immobilized Hsp90 to a labeled imidazothiazine derivative in the presence of a test compound were performed.
Purified human Hsp90α protein (His2-hHsp90a) tagged with histidine at the N terminus through using Escherichia coli was employed as Hsp90.
The mixture was reacted overnight at 4° C. in a 96-well LumiNunc plate (manufactured by Nunc, Inc.). The above procedure gave immobilized Hsp90 in which the His2-hHsp90α protein was bound to Ysi (2-5 μm) copper his-tag SPA beads via histidine tag.

Hsp90/HSF-1 complex = biological target: T3, Hsp90/HSF-1 complex (Homo sapiens, UniProt P07900); assay: Hsp90/HSF-1 complex disrupting activity (immunoprecipitation from chondrocyte lysate, western blotting); assay type: biochemical; conditions: 1 μM compound, 30 minutes, FIG. 4, lane 3
T3 construct: host or cells: human normal articular chondrocytes (lysate)
Description: In another embodiment of the step (2), the activity of a test compound to disrupt the Hsp90/HSF-1 complex was measured. The substance having the activity to disrupt Hsp90/HSF-1 complex is expected to show the heat shock protein expression-inducing activity.
Human normal articular chondrocytes (manufactured by Clonetics) were washed with PBS and dissolved in RIPA buffer solution (50 mM Tris-HCl, pH 8.0, 150 mM NaCl, 1% NP-40, 0.1% SDS and 0.5% deoxycholic acid) containing a proteinase inhibitor (Complete; Boehringer Mannheim). After the solution was centrifuged at 16,000×g for 10 minutes, the supernatant was used as the lysate containing the Hsp90/HSF-1 complex. […]
After completion of the electrophoresis, the proteins in the gel were adsorbed onto a nitrocellulose membrane (Hybond-ECL; manufactured by Amersham Pharmacia Biotech Inc.) using HorizBlot (manufactured by Atto Co.). Each protein level was measured by western blotting using anti-HSF-1 antibody (manufactured by StressGen) or anti-Hsp90 antibody (manufactured by Transduction Laboratories) as a primary antibody and horseradish peroxidase-labeled anti-rabbit IgG antibody (manufactured by Cell Signaling Technology) or horseradish peroxidase-labeled anti-mouse IgG antibody (manufactured by Kirkegasrd & Perry Laboratories) as a secondary antibody.

[3] = test system: Hsp90 client protein such as glucocorticoid receptor, Akt, cyclin dependent kinase 4; assay: Hsp90 client protein degradation-inducing activity (western blotting); assay type: cell-based, human
Description: Human normal articular chondrocytes were suspended to 0.5×10^5 cells/ml in a growth medium for articular chondrocytes. The cell culture was inoculated into a 6-well plate (manufactured by Falcon Co., Ltd.) by 2 ml per each well, followed by incubation at 37° C. for a day under 5% CO2. The medium was exchanged to a 1:1 mixture of Dulbecco's modified Eagle's medium/Ham F12 medium, followed by further incubation at 37° C. for a day under 5% CO2.
The test compound was added to the culture medium and the cells were further incubated for about 18 hours at 37° C. under 5% CO2. After completion of the incubation, the cells were washed once with phosphate-buffered saline (PBS) and 200 μl of a cell lysate buffer (10 mM Tris(hydroxymethyl)aminomethane, pH 7.4, 150 mM NaCl, 1 mM EDTA.2Na, 1 mM EGTA, 0.5 mM (p-aminophenyl)methanesulfonyl fluoride hydrochloride, 200 μM sodium β-glycerophosphate n-hydrate, 20 mM NaF, 2 mM sodium diphosphate decahydrate, 10 μg/ml aprotinin, 10 μg/ml leupeptin, 1% Triton X-100, 0.5% Nonidet P40, 0.1% SDS and 1 mM o-vanadate) was added thereto. After the cell debris was scraped from the plate using a cell scraper, the cell lysate buffer was recovered. The recovered cell lysate buffer was mixed with the equal volume of a sample buffer (Tris-SDS-ME Sample Buffer; manufactured by Daiichi Pure Chemicals). […]

SMILES | Hsp70 protein level (Hsp70) | apoptosis / cell viability after NOR3 (MTT) [1] | cell viability (WST-8) ([2]; at concentrations of 30 nM or higher) | binding level of the His-hHsp90α protein to the immobilized Compound B (His-hHsp90α) | binding level of the His2-hHsp90α protein to [3H]-compound A (His2-hHsp90α protein) | co-precipitation of HSF-1 with Hsp90 (anti-Hsp90 antibody immunoprecipitation) (Hsp90/HSF-1 complex) | intracellular protein level of Hsp90 client protein (glucocorticoid receptor, Akt, cyclin dependent kinase 4) ([3]; human normal articular chondrocytes, about 18 hours, at concentrations of 10 μM or less, FIG. 5) | client protein degradation-inducing activity as compared to GA ([3]; ratio relative to GA) | cell viability (WST-8) ([2]; at concentrations of 10 μM or less) | cytotoxicity relative to that of GA ([2]; ratio relative to GA)
COC1=C2C[C@@H](C)C[C@H](OC)[C@H](O)[C@@H](C)/C=C(\C)[C@H](OC(N)=O)[C@@H](OC)/C=C\C=C(/C)C(=O)NC(=CC1=O)C2=O (relative stereo) [GA, [18S-(4E,5Z,8R*,9R*,10E,12R*,13S*,14R*,16S*)]-9-[(aminocarbonyl)oxy]-13-hydroxy-8,14,19-trimethoxy-4,10,12,16-tetramethyl-2-azabicyclo[16.3.1.]docosa-4,6,10,18,21-pentan-3,20,22-trion, reference compound] | clearly increased | decreased the cell viability | greatly decreased |  |  |  |  |  |  | 
Cc1ccc(S(=O)(=O)/N=c2\[nH]c(=O)n3c(C)c(C)sc(SCCCC(F)(F)C(F)(F)F)c2-3)cc1 [Compound A, N-[(1Z)-5,6-dimethyl-3-oxo-8-[(4,4,5,5,5-pentafluoropentyl)sulfanyl]-2,3-dihydro-1H-imidazo[5,1-c][1,4]thiazin-1-ylidene]-4-methylbenzenesulfonamide] | clearly increased | dose-dependently suppressed the apoptosis |  | dose-dependently decreased | dose-dependently decreased | not observed | did not affect | less than 1/1000 | did not affect | 1/300
